Measured values: US20220062240A1, “METHODS OF TREATING CANCER USING A CLK INHIBITOR” (BioSplice Therapeutics, Inc., priority 2018, published 2022)
pEC50: −log10 of the molar value. Where two headings read alike, the source gives them in different places.

Assays:
[1] = tested on: SW480 colorectal cancer cells; assay: Gene expression qRT-PCR in SW480 cells; format: cell-based; details: Homo sapiens
Experimental: SW480 colorectal cancer cells were plated at 1×10^4 cells per well into 96-well plates (Olympus). Compounds were diluted in cell culture media and added to the cells at a final concentration of 3 μM. Cells were treated with vehicle (DMSO) and compounds for 24 hours. N=3 biological replicates per conditions.
Following treatment, cells were lysed, and cDNA was generated using the Fastlane Cell cDNA Kit (Qiagen).
384-well PCR plates with pre-spotted primers for CLK1, CLK2, CLK3, DVL2, LRP5, SRSF1, SRSF3, SRSF4, SRSF5, TCF7, TCF7L2 were ordered from Bio-Rad. The generated cDNA, along with a SYBR Green qRT-PCR master mix (SsoAdvanced™ Universal SYBR® Green Supermix, Bio-Rad) was added to the PCR plates.
qRT-PCR was performed on the plates using a CFX384 Touch™ Real-Time PCR Detection System (Bio-Rad) with the manufacturer's recommended thermal cycling conditions.
Data from the qRT-PCR assay was normalized to the GAPDH and HPRT1 housekeeping genes and set gene expression fold change was set relative to vehicle-treated cells using the ΔΔCt analysis method.

[2] = molecular target: CLK3 (Homo sapiens, UniProt P49761); assay: CLK3 kinase activity assay (Z-lyte, Ser/Thr 18 peptide)
[3] = tested on: Wnt-responsive Sp5-Luc reporter in SW480 colon carcinoma cells; assay: Wnt activity screening assay (Sp5-Luc reporter); format: cell-based; details: Homo sapiens
From the text: The screening assay for Wnt activity is described as follows. Reporter cell lines can be generated by stably transducing cancer cell lines (e.g., colon cancer) or primary cells (e.g., IEC-6 intestinal cells) with a lentiviral construct that includes a Wnt-responsive promoter driving expression of the firefly luciferase gene.
SW480 colon carcinoma cells were transduced with a lentiviral vector expressing luciferase with a human Sp5 promoter consisting of a sequence of eight TCF/LEF binding sites. […] These stably transduced SW480 cells were expanded in cell culture and used for all further screening activities. […] For Sp5-Luc reporter gene assays, the cells were plated at 4,000 cells/well in 384-well plates with a DMEM medium containing 1% fetal bovine serum, and 1% Penicillin-Streptomycin and incubated for 36 to 48 hours at 37° C. and 5% CO2. Following incubation, 15 μL of BriteLite Plus luminescence reagent (Perkin Elmer) was added to each well of the 384-well assay plates. The plates were placed on an orbital shaker for 2 min and then luminescence was quantified using the Envision (Perkin Elmer) plate reader.

[4] = molecular target: T1, CLK2 (Homo sapiens, UniProt P49760); assay: CLK2 kinase activity assay (Z-lyte, Ser/Thr 6 peptide); format: biochemical
T1 construct: purchased Thermo Fisher (Life Technologies), Z'-LYTE Kinase Assay Kits
Experimental: All reactions were performed in duplicate.

[5] = tested on: all 50 cell lines; assay: CellTiter-Glo Viability Assay, average across all cell lines; format: cell-based; details: Homo sapiens; across all 50 cell lines; read-out: average EC50 for inhibition of cancer cell proliferation
Experimental: Fifty-one human cancer cell lines (breast cancer (8 cell lines), colorectal cancer (6 cell lines), haematopoietic & lymphoid tumors (13 cell lines), liver cancer (3 cell lines), lung cancer (4 cell lines), ovarian cancer (4 cell lines), pancreatic cancer (8 cell lines), and prostate cancer (5 cell lines)) were tested to determine the effects of representative compounds of Formulas (I)-(XII) on cellular proliferation, as evaluated using the CellTiter-Glo® Viability Assay.
For the Cell Viability Assays, cells were plated at 300-3,000 cells/well in 384-well plates in their respective media containing 1% Penicillin-Streptomycin and incubated for four days at 37° C. and 5% CO2. Twenty-eight replicates of DMSO-treated cells served as controls and cells treated with compound were performed in duplicate.
After incubation, 10 μL of CellTiter-Glo® (Promega) was added to each well allowed to incubate for approximately 12 minutes. This reagent results in cell lysis and generation of a luminescent signal proportional to the amount of ATP present. The amount of ATP is directly proportional to the number of metabolically active, viable cells present in culture. The CellTiter-Glo® Assay generates a luminescent signal, produced by the luciferase reaction (Promega.com).
After incubation, the luminescence signal was read using an EnVision™ Multilabel Plate Reader (Perkin Elmer). Dose-response curves were generated and EC50 concentration values were calculated using Dotmatics' Studies Software (Bishops Stortford, UK).

[6] = recombinant CLK2 kinase, ATP 60 μM, read-out: EC50
[7] = SW480, 3 μM, 24 hours, relative to DMSO, read-out: gene expression fold change CLK1
[8] = SW480, 3 μM, 24 hours, relative to DMSO, read-out: gene expression fold change CLK2
[9] = SW480, 3 μM, 24 hours, relative to DMSO, read-out: gene expression fold change CLK3
[10] = SW480, 3 μM, 24 hours, relative to DMSO, read-out: gene expression fold change DVL2
[11] = SW480, 3 μM, 24 hours, relative to DMSO, read-out: gene expression fold change LRP5
[12] = SW480, 3 μM, 24 hours, relative to DMSO, read-out: gene expression fold change SRSF1
[13] = SW480, 3 μM, 24 hours, relative to DMSO, read-out: gene expression fold change SRSF3
[14] = SW480, 3 μM, 24 hours, relative to DMSO, read-out: gene expression fold change SRSF4
[15] = SW480, 3 μM, 24 hours, relative to DMSO, read-out: gene expression fold change SRSF5
[16] = SW480, 3 μM, 24 hours, relative to DMSO, read-out: gene expression fold change TCF7
[17] = SW480, 3 μM, 24 hours, relative to DMSO, read-out: gene expression fold change TCF7L2
[18] = SW480 Sp5-Luc reporter, 36 to 48 hours, read-out: EC50

Chain of CLK3 (P49761 whole entry): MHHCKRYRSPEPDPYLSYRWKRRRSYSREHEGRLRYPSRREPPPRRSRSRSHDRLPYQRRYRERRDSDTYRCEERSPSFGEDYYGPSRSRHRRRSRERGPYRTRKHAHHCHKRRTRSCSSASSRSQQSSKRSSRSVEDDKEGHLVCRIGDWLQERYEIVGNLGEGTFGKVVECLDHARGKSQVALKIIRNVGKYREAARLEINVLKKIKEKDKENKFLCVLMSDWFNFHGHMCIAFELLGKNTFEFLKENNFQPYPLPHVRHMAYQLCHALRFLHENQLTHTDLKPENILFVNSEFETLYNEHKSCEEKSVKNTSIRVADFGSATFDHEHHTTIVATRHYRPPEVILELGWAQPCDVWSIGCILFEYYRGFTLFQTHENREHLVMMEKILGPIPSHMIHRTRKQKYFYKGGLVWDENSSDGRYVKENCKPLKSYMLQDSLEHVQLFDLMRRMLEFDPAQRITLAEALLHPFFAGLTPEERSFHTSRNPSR
T1 sequence (P49760 whole entry): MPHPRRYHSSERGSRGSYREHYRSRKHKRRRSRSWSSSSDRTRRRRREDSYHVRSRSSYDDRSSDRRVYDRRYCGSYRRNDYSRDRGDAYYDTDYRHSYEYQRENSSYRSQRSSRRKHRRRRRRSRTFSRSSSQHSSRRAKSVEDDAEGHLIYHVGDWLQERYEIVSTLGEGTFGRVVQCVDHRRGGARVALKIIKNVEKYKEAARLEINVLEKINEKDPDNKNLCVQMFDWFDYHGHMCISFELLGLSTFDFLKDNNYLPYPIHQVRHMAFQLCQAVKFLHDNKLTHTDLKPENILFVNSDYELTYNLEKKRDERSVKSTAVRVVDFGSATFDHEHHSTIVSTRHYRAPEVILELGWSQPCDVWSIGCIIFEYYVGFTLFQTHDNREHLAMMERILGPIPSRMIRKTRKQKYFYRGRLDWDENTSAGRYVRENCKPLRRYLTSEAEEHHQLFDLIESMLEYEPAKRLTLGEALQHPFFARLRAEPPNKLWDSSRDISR

pEC50 [2] | pEC50 [4, 6] | pEC50 [3, 18] | SMILES | fold induction at 3 µM [1, 7] | fold induction at 3 µM [1, 8] | fold induction at 3 µM [1, 9] | fold induction at 3 µM [1, 10] | fold induction at 3 µM [1, 11] | fold induction at 3 µM [1, 12] | fold induction at 3 µM [1, 13] | fold induction at 3 µM [1, 14] | fold induction at 3 µM [1, 15] | fold induction at 3 µM [1, 16] | fold induction at 3 µM [1, 17] | further results
8.30 | 9.00 | 7.89 | CC(C)N1CCC(n2cc(C(=O)Nc3cc4cc(-c5cnn(C)c5)ccc4cn3)cn2)CC1 [Compound 11] | 0.02 | 0.04 | 0.09 | 0.11 | 0.09 | 0.74 | 0.17 | 0.15 | 0.24 | 0.19 | 0.17 | 
7.52 | 8.66 | 5.66 | O=C(Nc1c[nH]nc1-c1nc2c(-c3cccc(F)c3)cncc2[nH]1)C1CCNCC1 [Compound 89] |  |  |  |  |  |  |  |  |  |  |  | pEC50 [5]: 5.07
 |  | < 5.00 | CC(C)CC(=O)Nc1cncc(-c2cc3c(-c4nc5c(-c6cc(F)cc(OCCN7CCCC7)c6)cncc5[nH]4)n[nH]c3cn2)c1 [Compound 45] |  |  |  |  |  |  |  |  |  |  |  | pEC50 [5]: 5.07
7.74 | 8.70 | 7.85 | O=C(Nc1cc2cc(-c3cncc(NC4CCNC[C@@H]4F)n3)ccc2cn1)C1CC1 (some centres unmarked) [Compound 22] | 0.04 | 0.04 | 0.04 | 0.41 | 0.21 | 0.53 | 0.18 | 0.04 | 0.36 | 0.75 | 0.68 | 
6.84 | 8.00 | 6.94 | Cc1nc(Nc2n[nH]c3c2CN(C(=O)N[C@H](CN(C)C)c2ccccc2)C3(C)C)c2sccc2n1 [Compound 25] | 0.07 | 0.09 | 0.08 | 0.21 | 0.09 | 0.2 | 0.1 | 0.09 | 0.19 | 0.21 | 0.11 | 
8.00 | 9.00 | 7.41 | CN1CCC(C(=O)Nc2c[nH]nc2-c2nc3c(-c4cccc(F)c4)cccc3[nH]2)CC1 [Compound 1] | 0.02 | 0.02 | 0.01 | 0.14 | 0.18 | 0.32 | 0.13 | 0.03 | 0.39 | 0.44 | 0.24 | 
7.89 | 9.00 | 7.07 | CN1CCC(Oc2ccc(NC(=O)c3n[nH]c4ccc(-c5cncc(N)c5)cc34)cc2)CC1 [Compound 32] |  |  |  |  |  |  |  |  |  |  |  | 
7.57 | 9.52 | 6.59 | Cc1ncc(NC(=O)c2n[nH]c3ccc(-c4cnn(C5CCNCC5)c4)cc23)s1 [Compound 5] | 0.15 | 0.12 | 0.55 | 0.37 | 0.43 | 1.52 | 0.46 | 0.27 | 0.6 | 0.3 | 0.24 | 
7.72 | 9.00 | 6.77 | Nc1cncc(-c2ccc3cnc(NC(=O)c4ccc(OC5CCNCC5)cc4)cc3c2)c1 [Compound 20] | 0.07 | 0.08 | 0.35 | 0.42 | 0.37 | 1.56 | 0.5 | 0.33 | 0.63 | 0.47 | 0.6 | 
5.89 | 8.70 | 6.28 | Cc1n[nH]c2ncc(-c3cncc(OC[C@@H](N)Cc4ccccc4)n3)cc12 [Compound 4] | 0.43 | 0.35 | 0.74 | 0.11 | 0.06 | 0.25 | 0.05 | 0.7 | 0.27 | 0.21 | 0.13 | 
6.50 | 8.52 | 6.43 | Cc1n[nH]c2ccc(-c3cncc(OC4CCNCC4(F)F)n3)cc12 (centres unmarked) [Compound 28] |  |  |  |  |  |  |  |  |  |  |  | 
7.58 | 8.72 |  | Cc1ncc(-c2cnc3[nH]nc(-c4cc5c(-c6cc(F)cc(NCCN(C)C)c6)ccnc5[nH]4)c3c2)n1C [Compound 52] |  |  |  |  |  |  |  |  |  |  |  | pEC50 [5]: 5.07
7.71 | 8.66 | < 5.00 | CN(C)CCOc1cncc(-c2cc3c(-c4cc5c(-c6cccnc6)ccnc5[nH]4)n[nH]c3cn2)c1 [Compound 49] |  |  |  |  |  |  |  |  |  |  |  | pEC50 [5]: 5.01

SMILES | pEC50 [2] | pEC50 [4, 6] | pEC50 [3, 18] | fold induction at 3 µM [1, 7] | fold induction at 3 µM [1, 8] | fold induction at 3 µM [1, 9] | fold induction at 3 µM [1, 10] | fold induction at 3 µM [1, 11] | fold induction at 3 µM [1, 12] | fold induction at 3 µM [1, 13] | fold induction at 3 µM [1, 14] | fold induction at 3 µM [1, 15] | fold induction at 3 µM [1, 16] | fold induction at 3 µM [1, 17] | further results
CCS(=O)(=O)c1cccc(-c2cc(C(=O)NC3CCN(C)CC3)c(C)c3[nH]c4ncc(C)cc4c23)c1 [Compound 24] | 7.15 | 8.52 |  |  |  |  |  |  |  |  |  |  |  |  | fold induction at 3 µM ([1]; SW480, 24 h, read-out: gene expression fold change CLK1): 0.35; fold induction at 3 µM ([1]; SW480, 24 h, read-out: gene expression fold change CLK2): 0.19; fold induction at 3 µM ([1]; SW480, 24 h, read-out: gene expression fold change CLK3): 0.19; fold induction at 3 µM ([1]; SW480, 24 h, read-out: gene expression fold change DVL2): 0.39; fold induction at 3 µM ([1]; SW480, 24 h, read-out: gene expression fold change LRP5): 0.34; fold induction at 3 µM ([1]; SW480, 24 h, read-out: gene expression fold change SRSF1): 0.46; fold induction at 3 µM ([1]; SW480, 24 h, read-out: gene expression fold change SRSF3): 0.31; fold induction at 3 µM ([1]; SW480, 24 h, read-out: gene expression fold change SRSF4): 0.37; fold induction at 3 µM ([1]; SW480, 24 h, read-out: gene expression fold change SRSF5): 0.49; fold induction at 3 µM ([1]; SW480, 24 h, read-out: gene expression fold change TCF7): 0.49; fold induction at 3 µM ([1]; SW480, 24 h, read-out: gene expression fold change TCF7L2): 0.33; pEC50 ([3]; SW480): 6.49
Cc1ccc([N+](=O)[O-])cc1S(=O)(=O)N(C)/N=C/c1cnc2ccc(Br)cn12 [Compound 26] | 7.82 |  |  |  |  |  |  |  |  |  |  |  |  |  | pEC50 ([3]; SW480): 7.41; pEC50 [4]: 9.00
